One may read the inhibition as the share of the control response that was lost under treatment.

SMILES strings stand for the structures. Calls of active or inactive are those of the source. The rule behind the calls is not given here.

For data set [1], the system named is 3T3-L1. The data set can be described thus: Inhibition of adipogenesis in mouse 3T3L1 cells assessed as reduction of triglyceride accumulation at 80 ug/ml after 8 days. It counts as functional.
Data set [2] has as its system 3T3-L1. Nature of the data set: Inhibition of adipogenesis in mouse 3T3L1 cells assessed as reduction of GPDH activity at 80 ug/ml after 8 days. It counts as functional.
Data set [3] relates to 3T3-L1. Nature of the data set: Cytotoxicity against mouse 3T3L1 cells assessed as cell viability at up to 40 ug/ml. It counts as cell-based.
For data set [4], the system named is 3T3-L1. Nature of the data set: Inhibition of adipogenesis in mouse 3T3L1 cells assessed as reduction of lipid accumulation at 40 ug/ml after 8 days relative to control. It counts as functional. To be noted: 3T3-L1, 192 h.
In data set [5] the test system is 3T3-L1. The data set can be described thus: Inhibition of adipogenesis in mouse 3T3L1 cells assessed as reduction of ACC mRNA expression at 80 ug/ml after 8 days by RT-PCR analysis. It counts as functional, cell-based.
Data set [6] deals with 3T3-L1. The data set can be described thus: Cytotoxicity against mouse 3T3L1 cells assessed as cell viability at up to 80 ug/ml. It counts as cell-based.
Data set [7] relates to 3T3-L1. Nature of the data set: Inhibition of adipogenesis in mouse 3T3L1 cells assessed as reduction of FAS mRNA expression at 80 ug/ml after 8 days by RT-PCR analysis. It counts as functional, cell-based.
Data set [8] concerns 3T3-L1. The data set can be described thus: Inhibition of adipogenesis in mouse 3T3L1 cells assessed as reduction of SREBP1c mRNA expression at 80 ug/ml after 8 days by RT-PCR analysis relative to control. It counts as functional. To be noted: 3T3-L1, 192 h.
Data set [9] has as its system 3T3-L1. The data set can be described thus: Inhibition of adipogenesis in mouse 3T3L1 cells assessed as reduction of SREBP1c protein expression at 80 ug/ml after 8 days by Western blotting analysis. It counts as functional, cell-based. A general note: Immunoblotting shows a protein as a band on a membrane.

Consider `COC(=O)C(C)CC(=O)C[C@@H](C)[C@H]1CC(=O)[C@@]2(C)C3=C(C(=O)C[C@]12C)[C@@]1(C)CC[C@H](O)C(C)(C)[C@@H]1C[C@@H]3O` (stereo partly specified) [METHYL GANODERATE B], for which the inhibition entry in the data set with 3T3-L1 [1] and with 3T3-L1 [2] was “Active” in each case. Besides, in the data set with 3T3-L1 [3], the Activity result is listed as “Non-toxic”.
On to `C[C@H](CC(=O)C[C@@H](C)[C@H]1CC(=O)[C@@]2(C)C3=C(C(=O)C[C@]12C)[C@@]1(C)CCC(=O)C(C)(C)[C@@H]1CC3=O)C(=O)O` [GANODERIC ACID E], for which the Activity entry in the data set with 3T3-L1 [3] is “Non-toxic”.
The same measure, in the same setting: then `COC(=O)CC[C@@H](C)[C@H]1CC(=O)[C@@]2(C)C3=C(C(=O)[C@@H](OC(C)=O)[C@]12C)[C@@]1(C)CC[C@H](O)C(C)(C)[C@@H]1C[C@@H]3O` [METHYL LUCIDENATE P], with “Non-toxic”.
Turning to `CCCCOC(=O)C(C)CC(=O)C[C@@H](C)[C@H]1C[C@H](O)[C@@]2(C)C3=C(C(=O)C[C@]12C)[C@@]1(C)CCC(=O)C(C)(C)[C@@H]1C[C@@H]3O` (stereo partly specified) [BUTYL GANODERATE A], the inhibition at 40 µg/mL in the data set on 3T3-L1 [4] was determined as 48%. In addition, the inhibition result with 3T3-L1 [1], in the data set with 3T3-L1 [5], in the data set with 3T3-L1 [7], in the data set on 3T3-L1 [2] and in the data set on 3T3-L1 [9] was “Active” each time. The Activity entry in the data set with 3T3-L1 [6] and in the data set on 3T3-L1 [3] was “Non-toxic” in each case. The inhibition at 80 µg/mL with 3T3-L1 [8] came to 26%.
Turning to `C[C@H](CC(=O)C[C@@H](C)[C@H]1C[C@H](O)[C@@]2(C)C3=C(C(=O)C[C@]12C)[C@@]1(C)CCC(=O)C(C)(C)[C@@H]1C[C@@H]3O)C(=O)O` [GANODERIC ACID A], the inhibition at 80 µg/mL was 36% in the data set on 3T3-L1 [1] (3T3-L1, 192 h) and 48% in the data set on 3T3-L1 [2] (3T3-L1, 192 h). Besides, the Activity entry in the data set on 3T3-L1 [6] and in the data set on 3T3-L1 [3] was “Non-toxic” each time.
`CC(CC(=O)C[C@@H](C)[C@H]1CC(=O)[C@@]2(C)C3=C(C(=O)C[C@]12C)[C@@]1(C)CC[C@H](O)C(C)(C)[C@@H]1C[C@@H]3O)C(=O)O` (stereo partly specified) [GANODERIC ACID B]: the inhibition entry in the data set with 3T3-L1 [1] and with 3T3-L1 [2] was “Active” each time. Further, the Activity result with 3T3-L1 [3] is “Non-toxic”.
As for `CCCCOC(=O)CC[C@@H](C)[C@H]1CC(=O)[C@@]2(C)C3=C(C(=O)C[C@]12C)[C@@]1(C)CCC(=O)C(C)(C)[C@@H]1C[C@@H]3O` [BUTYL LUCIDENATE A], the inhibition at 40 µg/mL in the data set on 3T3-L1 [4] is 45%. For the same molecule, the Activity result in the data set with 3T3-L1 [3] is reported as “Non-toxic”.
In the case of `COC(=O)[C@H](C)CC(=O)C[C@@H](C)[C@H]1C[C@H](O)[C@@]2(C)C3=C(C(=O)C[C@]12C)[C@@]1(C)CCC(=O)C(C)(C)[C@@H]1C[C@@H]3O`, the Activity entry in the data set on 3T3-L1 [6] and in the data set on 3T3-L1 [3] was “Non-toxic” throughout.
`C[C@H](CCC(=O)O)[C@H]1CC(=O)[C@@]2(C)C3=C(C(=O)C[C@]12C)[C@@]1(C)CC[C@H](O)C(C)(C)[C@@H]1C[C@@H]3O` [LUCIDENIC ACID N]: the inhibition entry with 3T3-L1 [1] and in the data set on 3T3-L1 [2] was “Active” each time. Also, in the data set with 3T3-L1 [3], the Activity result was “Non-toxic”.
Take `COC(=O)CC[C@@H](C)[C@H]1CC(=O)[C@@]2(C)C3=C(C(=O)[C@@H](OC(C)=O)[C@]12C)[C@@]1(C)CC[C@H](O)C(C)(C)[C@@H]1CC3=O` [METHYL LUCIDENATE E2]: the Activity entry in the data set with 3T3-L1 [3] was “Non-toxic”.
Take `COC(=O)C(C)CC(=O)C[C@@H](C)[C@H]1CC(=O)[C@@]2(C)C3=C(C(=O)C[C@]12C)[C@@]1(C)CCC(=O)C(C)(C)[C@@H]1C[C@@H]3O` (stereo partly specified) [METHYL GANODERATE D]: the Activity entry in the data set with 3T3-L1 [3] is reported as “Non-toxic”.
Still for that read-out and setting: in the case of `COC(=O)C(C)CC(=O)C[C@@H](C)[C@H]1CC(=O)[C@@]2(C)C3=C(C(=O)[C@@H](OC(C)=O)[C@]12C)[C@@]1(C)CC[C@H](O)C(C)(C)[C@@H]1CC3=O` (stereo partly specified) [METHYL GANODERATE H] it was “Non-toxic”.
As to `CCCCOC(=O)[C@H](C)CC(=O)C[C@@H](C)[C@H]1CC(=O)[C@@]2(C)C3=C(C(=O)C[C@]12C)[C@@]1(C)CC[C@H](O)C(C)(C)[C@@H]1C[C@@H]3O` [BUTYL GANODERATE B], the inhibition at 40 µg/mL with 3T3-L1 [4] came out at 41%. For the same molecule, the inhibition entry with 3T3-L1 [1] and in the data set on 3T3-L1 [2] was “Active” throughout. For the same molecule, the Activity entry in the data set on 3T3-L1 [3] is listed as “Non-toxic”.
As for `COC(=O)CC[C@@H](C)[C@H]1CC(=O)[C@@]2(C)C3=C(C(=O)C[C@]12C)[C@@]1(C)CCC(=O)C(C)(C)[C@@H]1CC3=O` [METHYL LUCIDENATE F], the Activity result in the data set with 3T3-L1 [3] is “Non-toxic”.
The same measure, in the same setting: in the case of `CC(CC(=O)C[C@@H](C)[C@H]1C[C@H](O)[C@@]2(C)C3=C(C(=O)C[C@]12C)[C@@]1(C)CCC(=O)C(C)(C)[C@@H]1CC3)C(=O)O` (stereo partly specified) [GANOLUCIDIC ACID A] it was “Non-toxic”.
Turning to `CCCCOC(=O)CC[C@@H](C)[C@H]1CC(=O)[C@@]2(C)C3=C(C(=O)C[C@]12C)[C@@]1(C)CC[C@H](O)C(C)(C)[C@@H]1C[C@@H]3O` [BUTYL LUCIDENATE N], the inhibition at 40 µg/mL with 3T3-L1 [4] was determined as 56%. Moreover, the inhibition result in the data set on 3T3-L1 [1], in the data set on 3T3-L1 [5], with 3T3-L1 [7], with 3T3-L1 [2] and with 3T3-L1 [9] was “Active” throughout. In addition, the inhibition at 80 µg/mL in the data set with 3T3-L1 [8] was determined as 38%. Moreover, the Activity entry in the data set on 3T3-L1 [3] is given as “Non-toxic”.
As to `COC(=O)CC[C@@H](C)[C@H]1CC(=O)[C@@]2(C)C3=C(C(=O)C[C@]12C)[C@@]1(C)CCC(=O)C(C)(C)[C@@H]1C[C@@H]3O` [METHYL LUCIDENATE A], in the data set with 3T3-L1 [3], the Activity result was “Non-toxic”.

The values are drawn from ChEMBL document CHEMBL1221340, “Lanostane triterpenes from Ganoderma lucidum suppress the adipogenesis in 3T3-L1 cells through down-regulation of SREBP-1c” (Bioorg Med Chem Lett, 2010).
